Reference: ChEMBL document CHEMBL3885861, “Open TG-GATES”

Species on record: Rattus norvegicus
Assay: Open TG-GATES - Regimen: Daily Repeat
Format: toxicity, organism-based, Sprague-Dawley
Parameters: regimen Daily Repeat, gender Male, age 6 weeks
Details: in vivo, po, route gavage; for APTT / Bas / Eos / Fbg / Hb / Ht / Lym / MCH / MCHC / MCV / Mono / Neu / PT / Plat / RBC / Ret / WBC: tissue Blood; for KIDNEY_L / KIDNEY_R / KIDNEY_TOTAL: tissue Kidney; for LIVER: tissue Liver; for A/G / ALP / ALT / AST / BUN / CRE / Ca / Cl / DBIL / GLC / IP / K / LDH / Na / PL / RALB / TBIL / TC / TG / TP / gamma-GTP: tissue Plasma
[1] = 100 mg/kg, 72 h, dose level Middle, time 3 day
[2] = 100 mg/kg, […], dose level Middle, time 7 day
[3] = 100 mg/kg, […], dose level Middle, time 14 day
[4] = 100 mg/kg, […], dose level Middle, time 28 day
[5] = 300 mg/kg, 72 h, dose level High, time 3 day
[6] = 300 mg/kg, […], dose level High, time 7 day
[7] = 300 mg/kg, […], dose level High, time 14 day
[8] = 300 mg/kg, […], dose level High, time 28 day

## O=C(O)COc1nn(Cc2ccccc2)c2ccccc12 [BENDAZAC]
[1]
  TERMINAL_BW: 231.3 g
  APTT: 17.2 s
  Bas: 0%
  Eos: 1%
  Fbg: 205 mg/dL
  Hb: 13.5 g/dL
  Ht: 40.4%
  Lym: 80.6%
  MCH: 21.6 pg
  MCHC: 33.4%
  MCV: 64.8 fL
  Mono: 6.8%
  Neu: 11.8%
  PT: 11.8 s
  Plat: 116.4 x10_4/uL
  RBC: 624.4 x10_4/ul
  Ret: 7.1%
  WBC: 112.6 x10_2/uL
  KIDNEY_L: 1 g
  KIDNEY_R: 1.1 g
  KIDNEY_TOTAL: 2.1 g
  LIVER: 11.7 g
  A/G: 2
  ALP: 987.2 IU/L
  ALT: 39.8 IU/L
  AST: 65.6 IU/L
  BUN: 15.8 mg/dL
  CRE: 0.6 mg/dL
  Ca: 10.8 mg/dL
  Cl: 104.2 meq/L
  DBIL: 0.048 mg/dL
  GLC: 199.8 mg/dL
  IP: 7 mg/dL
  K: 4.5 meq/L
  LDH: 107.6 IU/L
  Na: 140 meq/L
  PL: 153.6 mg/dL
  RALB: 3.8 g/dL
  TBIL: 0.4 mg/dL
  TC: 82 mg/dL
  TG: 79.8 mg/dL
  TP: 5.7 g/dL
  gamma-GTP: 1 IU/L
[2]
  TERMINAL_BW: 259.9 g
  APTT: 17.3 s
  Bas: 0%
  Eos: 1.2%
  Fbg: 229.2 mg/dL
  Hb: 14.1 g/dL
  Ht: 41%
  Lym: 76.8%
  MCH: 21.7 pg
  MCHC: 34.3%
  MCV: 63.2 fL
  Mono: 8.4%
  Neu: 14%
  PT: 11.7 s
  Plat: 139.2 x10_4/uL
  RBC: 649.8 x10_4/ul
  Ret: 6.8%
  WBC: 114.5 x10_2/uL
  KIDNEY_L: 1.2 g
  KIDNEY_R: 1.1 g
  KIDNEY_TOTAL: 2.3 g
  LIVER: 13.1 g
  A/G: 2
  ALP: 927.8 IU/L
  ALT: 31.6 IU/L
  AST: 55.8 IU/L
  BUN: 18.8 mg/dL
  CRE: 0.5 mg/dL
  Ca: 11.1 mg/dL
  Cl: 105.6 meq/L
  DBIL: 0.014 mg/dL
  GLC: 206 mg/dL
  IP: 6.6 mg/dL
  K: 4.4 meq/L
  LDH: 110.8 IU/L
  Na: 140.6 meq/L
  PL: 141 mg/dL
  RALB: 3.8 g/dL
  TBIL: 0.4 mg/dL
  TC: 71.8 mg/dL
  TG: 108.6 mg/dL
  TP: 5.7 g/dL
  gamma-GTP: 1 IU/L
[3]
  TERMINAL_BW: 309.7 g
  APTT: 17.7 s
  Bas: 0%
  Eos: 1%
  Fbg: 213.4 mg/dL
  Hb: 14.6 g/dL
  Ht: 43.2%
  Lym: 83.2%
  MCH: 20.5 pg
  MCHC: 33.9%
  MCV: 60.4 fL
  Mono: 4.8%
  Neu: 11.4%
  PT: 11.4 s
  Plat: 126.3 x10_4/uL
  RBC: 715 x10_4/ul
  Ret: 2.9%
  WBC: 124.2 x10_2/uL
  KIDNEY_L: 1.2 g
  KIDNEY_R: 1.3 g
  KIDNEY_TOTAL: 2.5 g
  LIVER: 14.8 g
  A/G: 1.6
  ALP: 909.2 IU/L
  ALT: 32.2 IU/L
  AST: 63 IU/L
  BUN: 18.8 mg/dL
  CRE: 0.6 mg/dL
  Ca: 10.3 mg/dL
  Cl: 106 meq/L
  DBIL: 0.04 mg/dL
  GLC: 198.6 mg/dL
  IP: 6.5 mg/dL
  K: 4.5 meq/L
  LDH: 108 IU/L
  Na: 140.8 meq/L
  PL: 145.6 mg/dL
  RALB: 3.8 g/dL
  TBIL: 0.4 mg/dL
  TC: 68 mg/dL
  TG: 125.4 mg/dL
  TP: 6.2 g/dL
  gamma-GTP: 1.8 IU/L
[4]
  TERMINAL_BW: 386.1 g
  APTT: 18.1 s
  Bas: 0%
  Eos: 1.2%
  Fbg: 216.6 mg/dL
  Hb: 15.6 g/dL
  Ht: 45.8%
  Lym: 87%
  MCH: 19.5 pg
  MCHC: 34%
  MCV: 57.2 fL
  Mono: 2.2%
  Neu: 9%
  PT: 12 s
  Plat: 113.7 x10_4/uL
  RBC: 801.2 x10_4/ul
  Ret: 2.2%
  WBC: 131.2 x10_2/uL
  KIDNEY_L: 1.4 g
  KIDNEY_R: 1.4 g
  KIDNEY_TOTAL: 2.8 g
  LIVER: 17.3 g
  A/G: 1.4
  ALP: 669.2 IU/L
  ALT: 31.4 IU/L
  AST: 62.4 IU/L
  BUN: 20 mg/dL
  CRE: 0.6 mg/dL
  Ca: 9.7 mg/dL
  Cl: 103.8 meq/L
  DBIL: 0.02 mg/dL
  GLC: 189.2 mg/dL
  IP: 5.7 mg/dL
  K: 4.4 meq/L
  LDH: 102.8 IU/L
  Na: 139.6 meq/L
  PL: 136.8 mg/dL
  RALB: 3.7 g/dL
  TBIL: 0.4 mg/dL
  TC: 61.4 mg/dL
  TG: 154.4 mg/dL
  TP: 6.2 g/dL
  gamma-GTP: 1.2 IU/L
[5]
  TERMINAL_BW: 223.3 g
  APTT: 19 s
  Bas: 0%
  Eos: 0.8%
  Fbg: 218 mg/dL
  Hb: 14.2 g/dL
  Ht: 42%
  Lym: 75.2%
  MCH: 21.6 pg
  MCHC: 33.7%
  MCV: 64.2 fL
  Mono: 9.2%
  Neu: 14.4%
  PT: 12.3 s
  Plat: 133.3 x10_4/uL
  RBC: 655.2 x10_4/ul
  Ret: 6.2%
  WBC: 109.6 x10_2/uL
  KIDNEY_L: 1 g
  KIDNEY_R: 1.1 g
  KIDNEY_TOTAL: 2.1 g
  LIVER: 13.4 g
  A/G: 2.3
  ALP: 1088.6 IU/L
  ALT: 44.4 IU/L
  AST: 75.8 IU/L
  BUN: 17.4 mg/dL
  CRE: 0.6 mg/dL
  Ca: 10.8 mg/dL
  Cl: 103.6 meq/L
  DBIL: 0.076 mg/dL
  GLC: 192.6 mg/dL
  IP: 5.8 mg/dL
  K: 4.4 meq/L
  LDH: 141.8 IU/L
  Na: 140.4 meq/L
  PL: 131 mg/dL
  RALB: 3.8 g/dL
  TBIL: 0.8 mg/dL
  TC: 66.2 mg/dL
  TG: 68.8 mg/dL
  TP: 5.5 g/dL
  gamma-GTP: 1.2 IU/L
[6]
  TERMINAL_BW: 261 g
  APTT: 20.2 s
  Bas: 0%
  Eos: 0.8%
  Fbg: 207.6 mg/dL
  Hb: 13.8 g/dL
  Ht: 40.6%
  Lym: 83%
  MCH: 21.5 pg
  MCHC: 34%
  MCV: 63.3 fL
  Mono: 5.2%
  Neu: 11.4%
  PT: 12.6 s
  Plat: 132.2 x10_4/uL
  RBC: 641.6 x10_4/ul
  Ret: 6.1%
  WBC: 123 x10_2/uL
  KIDNEY_L: 1.2 g
  KIDNEY_R: 1.2 g
  KIDNEY_TOTAL: 2.3 g
  LIVER: 14.9 g
  A/G: 2
  ALP: 1331.4 IU/L
  ALT: 37 IU/L
  AST: 67.6 IU/L
  BUN: 19.6 mg/dL
  CRE: 0.5 mg/dL
  Ca: 11.1 mg/dL
  Cl: 105 meq/L
  DBIL: 0.022 mg/dL
  GLC: 196.8 mg/dL
  IP: 5.8 mg/dL
  K: 4.4 meq/L
  LDH: 115.8 IU/L
  Na: 141 meq/L
  PL: 121 mg/dL
  RALB: 3.8 g/dL
  TBIL: 0.8 mg/dL
  TC: 63.6 mg/dL
  TG: 55.2 mg/dL
  TP: 5.7 g/dL
  gamma-GTP: 1 IU/L
[7]
  TERMINAL_BW: 307.2 g
  APTT: 18.9 s
  Bas: 0%
  Eos: 0.6%
  Fbg: 213.6 mg/dL
  Hb: 14.7 g/dL
  Ht: 43%
  Lym: 83%
  MCH: 20.9 pg
  MCHC: 34%
  MCV: 61.3 fL
  Mono: 5.6%
  Neu: 10.8%
  PT: 11.7 s
  Plat: 128.4 x10_4/uL
  RBC: 702.2 x10_4/ul
  Ret: 3%
  WBC: 117.7 x10_2/uL
  KIDNEY_L: 1.2 g
  KIDNEY_R: 1.2 g
  KIDNEY_TOTAL: 2.5 g
  LIVER: 17 g
  A/G: 1.9
  ALP: 903.6 IU/L
  ALT: 36.6 IU/L
  AST: 60.8 IU/L
  BUN: 20.4 mg/dL
  CRE: 0.5 mg/dL
  Ca: 10.3 mg/dL
  Cl: 105.2 meq/L
  DBIL: 0.024 mg/dL
  GLC: 185.6 mg/dL
  IP: 5.3 mg/dL
  K: 4.2 meq/L
  LDH: 105.6 IU/L
  Na: 140.8 meq/L
  PL: 130.2 mg/dL
  RALB: 3.9 g/dL
  TBIL: 0.7 mg/dL
  TC: 62.4 mg/dL
  TG: 79.4 mg/dL
  TP: 6.1 g/dL
  gamma-GTP: 1.4 IU/L
[8]
  TERMINAL_BW: 410 g
  APTT: 21 s
  Bas: 0%
  Eos: 1%
  Fbg: 216.5 mg/dL
  Hb: 14.8 g/dL
  Ht: 43.9%
  Lym: 83.2%
  MCH: 19.5 pg
  MCHC: 33.8%
  MCV: 57.8 fL
  Mono: 5.5%
  Neu: 10.8%
  PT: 13.5 s
  Plat: 114.5 x10_4/uL
  RBC: 760.5 x10_4/ul
  Ret: 3.2%
  WBC: 142.5 x10_2/uL
  KIDNEY_L: 1.6 g
  KIDNEY_R: 1.6 g
  KIDNEY_TOTAL: 3.2 g
  LIVER: 21.1 g
  A/G: 1.6
  ALP: 768 IU/L
  ALT: 34 IU/L
  AST: 57 IU/L
  BUN: 20.2 mg/dL
  CRE: 0.6 mg/dL
  Ca: 9.9 mg/dL
  Cl: 103 meq/L
  DBIL: 0.0525 mg/dL
  GLC: 187 mg/dL
  IP: 5 mg/dL
  K: 4 meq/L
  LDH: 72 IU/L
  Na: 140 meq/L
  PL: 117 mg/dL
  RALB: 3.7 g/dL
  TBIL: 0.9 mg/dL
  TC: 54.8 mg/dL
  TG: 57.8 mg/dL
  TP: 6.2 g/dL
  gamma-GTP: 1.5 IU/L
